From PMC11694061 (Cancer Research, 2024)
Where two headings read alike, the source gives them in different places.

Key:
[1] = biological target: T1, SOS1 in K562 cells (Homo sapiens, UniProt Q07889); assay: SOS1 degradation in K562 cells (Western blot); assay type: cell-based
T1 construct: endogenous in cells; host or cells: K562
T1 sequence (Q07889 1-1333): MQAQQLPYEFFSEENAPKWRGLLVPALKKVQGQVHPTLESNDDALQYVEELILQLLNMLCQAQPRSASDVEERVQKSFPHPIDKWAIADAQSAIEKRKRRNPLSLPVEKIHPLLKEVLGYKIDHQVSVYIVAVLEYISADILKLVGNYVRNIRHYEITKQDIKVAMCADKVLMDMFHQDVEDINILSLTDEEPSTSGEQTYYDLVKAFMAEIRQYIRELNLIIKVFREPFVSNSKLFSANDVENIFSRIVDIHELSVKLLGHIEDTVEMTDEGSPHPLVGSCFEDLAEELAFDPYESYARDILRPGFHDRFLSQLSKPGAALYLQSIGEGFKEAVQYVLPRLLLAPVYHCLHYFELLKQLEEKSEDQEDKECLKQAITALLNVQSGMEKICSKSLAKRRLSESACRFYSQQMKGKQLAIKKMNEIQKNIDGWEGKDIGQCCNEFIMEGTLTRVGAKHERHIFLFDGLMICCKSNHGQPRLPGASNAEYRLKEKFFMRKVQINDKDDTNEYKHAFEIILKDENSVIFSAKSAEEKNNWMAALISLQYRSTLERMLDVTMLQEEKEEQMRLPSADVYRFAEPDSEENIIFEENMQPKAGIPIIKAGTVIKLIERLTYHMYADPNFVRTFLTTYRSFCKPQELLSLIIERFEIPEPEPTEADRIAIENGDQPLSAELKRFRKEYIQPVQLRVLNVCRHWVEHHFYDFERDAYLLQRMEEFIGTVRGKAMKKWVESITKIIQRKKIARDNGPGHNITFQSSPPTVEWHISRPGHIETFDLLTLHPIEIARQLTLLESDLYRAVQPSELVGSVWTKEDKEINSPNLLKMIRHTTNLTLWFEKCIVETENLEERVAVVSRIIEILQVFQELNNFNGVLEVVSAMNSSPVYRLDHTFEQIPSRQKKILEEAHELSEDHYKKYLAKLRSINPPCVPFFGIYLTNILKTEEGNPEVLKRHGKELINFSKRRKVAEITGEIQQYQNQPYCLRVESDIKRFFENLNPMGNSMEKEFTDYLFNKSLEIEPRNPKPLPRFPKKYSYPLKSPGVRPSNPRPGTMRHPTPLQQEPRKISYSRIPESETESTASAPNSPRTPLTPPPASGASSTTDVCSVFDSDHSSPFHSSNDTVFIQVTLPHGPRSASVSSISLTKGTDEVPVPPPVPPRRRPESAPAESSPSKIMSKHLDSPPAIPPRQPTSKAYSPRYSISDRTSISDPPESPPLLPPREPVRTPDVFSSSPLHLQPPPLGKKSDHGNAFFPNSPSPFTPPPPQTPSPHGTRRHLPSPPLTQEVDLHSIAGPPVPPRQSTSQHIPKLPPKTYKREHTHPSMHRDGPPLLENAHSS
From the text: After treatment, the cells were harvested with SDS lysis buffer, and SDS-PAGE gels were used to split the proteins in the lysate solutions. […] AB_2758039).

[2] = system: K562 cells; assay: Proliferation, K562; assay type: cell-based, human; details: Table S1 screening, read-out: IC50 (cell proliferation inhibition in K562 cells)
Procedure: Cells were inoculated onto 96-well plates and treated with compounds in serial dilutions for 3 or 5 days. […] The cell viability of primary patient samples was tested using the CellTiter-Glo Luminescent Assay kit (G7573, Promega) according to the manufacturer’s instructions. […] The optical density (OD) values were obtained using a SPARK microplate reader (Tecan). IC50 was calculated using GraphPad Prism 8.0.2 (nonlinear regression analysis with four parameters). Drug synergy was evaluated with combination index (CI) values using CalcuSyn Demo Version 2.0 software. CI > 1 indicates antagonism, CI < 1 indicates synergy, and CI = 1 indicates additivity.

Row | Structure (SMILES) | Degradation of SOS1 (%) ([1]; 0.1 μM) | Degradation of SOS1 (%) ([1]; 1.0 μM) | IC50 [2] | percent SOS1 degradation at 0.1 µM ([1]; 0.1 μM) | percent SOS1 degradation at 1 µM ([1]; 1.0 μM) | IC50 ([2]; Homo sapiens, K562)
1 | COc1cc2nc(C)nc(N[C@H](C)c3cc(N)cc(C(F)(F)F)c3)c2cc1O[C@H]1CCN(CCCSc2cccc3c2CN(C2CCC(=O)NC2=O)C3=O)C1 (stereo partly drawn) [SIAIS561084] | 7.3 ± 8.5% | -19.5 ± 2.2% | 1.31 ± 0.176 µM |  |  | 
2 | COc1cc2nc(C)nc(N[C@H](C)c3cc(N)cc(C(F)(F)F)c3)c2cc1O[C@H]1CCN(C(=O)CCCCSc2cccc3c2CN(C2CCC(=O)NC2=O)C3=O)C1 (stereo partly drawn) [SIAIS561086] |  |  |  | 22.7 ± 1.7% | 33.5 ± 4.7% | 7.69 ± 0.0912 µM
3 | COc1cc2nc(C)nc(N[C@H](C)c3cc(N)cc(C(F)(F)F)c3)c2cc1O[C@H]1CCN(C(=O)CCCCCSc2cccc3c2CN(C2CCC(=O)NC2=O)C3=O)C1 (stereo partly drawn) [SIAIS561087] |  |  |  | 53.5 ± 0.6% | 39.9 ± 0.9% | 6.51 ± 0.514 µM
4 | COc1cc2nc(C)nc(N[C@H](C)c3cc(N)cc(C(F)(F)F)c3)c2cc1O[C@H]1CCN(CCSc2cccc3c2CN(C2CCC(=O)NC2=O)C3=O)C1 (stereo partly drawn) [SIAIS561091] | 36.2 ± 5.7% | 27.0 ± 7.5% | 1.2 ± 0.0658 µM |  |  | 
5 | COc1cc2nc(C)nc(N[C@H](C)c3cc(N)cc(C(F)(F)F)c3)c2cc1O[C@H]1CCN(C(=O)CSc2cccc3c2CN(C2CCC(=O)NC2=O)C3=O)C1 (stereo partly drawn) [SIAIS561092] |  |  |  | -26.5 ± 8.3% | 8.1 ± 2.3% | 7.29 ± 1.01 µM
6 | COc1cc2nc(C)nc(N[C@H](C)c3cc(N)cc(C(F)(F)F)c3)c2cc1O[C@H]1CCN(C(=O)CCSc2cccc3c2CN(C2CCC(=O)NC2=O)C3=O)C1 (stereo partly drawn) [SIAIS561093] |  |  |  | 19.9 ± 1.8% | 24.7 ± 4.4% | 16.4 ± 2.44 µM
7 | COc1cc2nc(C)nc(N[C@H](C)c3cc(N)cc(C(F)(F)F)c3)c2cc1O[C@H]1CCN(C(=O)CCCSc2cccc3c2CN(C2CCC(=O)NC2=O)C3=O)C1 (stereo partly drawn) [SIAIS561094] |  |  |  | 32.9 ± 0.4% | 35.3 ± 0.6% | 7.13 ± 0.224 µM
8 | COc1cc2nc(C)nc(N[C@H](C)c3cc(N)cc(C(F)(F)F)c3)c2cc1O[C@H]1CCN(C(=O)CCCCCCSc2cccc3c2CN(C2CCC(=O)NC2=O)C3=O)C1 (stereo partly drawn) [SIAIS561095] |  |  |  | 26.7 ± 3% | 3.9 ± 4.7% | 5.23 ± 1.39 µM
9 | COc1cc2nc(C)nc(N[C@H](C)c3cc(N)cc(C(F)(F)F)c3)c2cc1O[C@H]1CCN(C(=O)CCCCCCCSc2cccc3c2CN(C2CCC(=O)NC2=O)C3=O)C1 (stereo partly drawn) [SIAIS561096] |  |  |  | 57.2 ± 0.7% | 49.7 ± 0.9% | 1.55 ± 0.0714 µM
10 | COc1cc2nc(C)nc(N[C@H](C)c3cc(N)cc(C(F)(F)F)c3)c2cc1O[C@H]1CCN(C(=O)CCCCCCCCCSc2cccc3c2CN(C2CCC(=O)NC2=O)C3=O)C1 (stereo partly drawn) [SIAIS561097] |  |  |  | -10.2 ± 5.5% | -20.9 ± 9% | 15.1 ± 2.04 µM
11 | COc1cc2nc(C)nc(N[C@H](C)c3cc(N)cc(C(F)(F)F)c3)c2cc1O[C@H]1CCN(C(=O)CCCCCCCCCCSc2cccc3c2CN(C2CCC(=O)NC2=O)C3=O)C1 (stereo partly drawn) [SIAIS561098] |  |  |  | 1.1 ± 1% | 17 ± 2.2% | 11.5 ± 0.515 µM
12 | COc1cc2nc(C)nc(N[C@H](C)c3cc(N)cc(C(F)(F)F)c3)c2cc1OC1CCN(C(=O)CSc2cccc3c2CN(C2CCC(=O)NC2=O)C3=O)CC1 (stereo partly drawn) [SIAIS561131] |  |  |  | 12.3 ± 6.5% | -2.3 ± 9.5% | 17.8 ± 3.9 µM
13 | COc1cc2nc(C)nc(N[C@H](C)c3cc(N)cc(C(F)(F)F)c3)c2cc1OC1CCN(C(=O)CCSc2cccc3c2CN(C2CCC(=O)NC2=O)C3=O)CC1 (stereo partly drawn) [SIAIS561132] |  |  |  | -14.7 ± 10.2% | -3.8 ± 4.2% | 0.112 ± 0.0042 µM
14 | COc1cc2nc(C)nc(N[C@H](C)c3cc(N)cc(C(F)(F)F)c3)c2cc1OC1CCN(C(=O)CCCSc2cccc3c2CN(C2CCC(=O)NC2=O)C3=O)CC1 (stereo partly drawn) [SIAIS561133] |  |  |  | -26.7 ± 1.7% | -4 ± 11.7% | 1.67 ± 0.0177 µM
15 | COc1cc2nc(C)nc(N[C@H](C)c3cc(N)cc(C(F)(F)F)c3)c2cc1OC1CCN(C(=O)CCCCSc2cccc3c2CN(C2CCC(=O)NC2=O)C3=O)CC1 (stereo partly drawn) [SIAIS561134] |  |  |  | 5.2 ± 12.8% | 14.2 ± 11.1% | 3.6 ± 0.103 µM
16 | COc1cc2nc(C)nc(N[C@H](C)c3cc(N)cc(C(F)(F)F)c3)c2cc1OC1CCN(C(=O)CCCCCSc2cccc3c2CN(C2CCC(=O)NC2=O)C3=O)CC1 (stereo partly drawn) [SIAIS561135] |  |  |  | 11.3 ± 4.8% | 12.7 ± 6.3% | 1.85 ± 0.455 µM
17 | COc1cc2nc(C)nc(N[C@H](C)c3cc(N)cc(C(F)(F)F)c3)c2cc1OC1CCN(C(=O)CCCCCCSc2cccc3c2CN(C2CCC(=O)NC2=O)C3=O)CC1 (stereo partly drawn) [SIAIS561136] |  |  |  | 18.2 ± 6.2% | 49.3 ± 2.2% | 2.53 ± 0.261 µM

Second part, the molecule after the results:

Row | Degradation of SOS1 (%) ([1]; 0.1 μM) | Degradation of SOS1 (%) ([1]; 1.0 μM) | IC50 [2] | percent SOS1 degradation at 0.1 µM ([1]; 0.1 μM) | percent SOS1 degradation at 1 µM ([1]; 1.0 μM) | IC50 ([2]; Homo sapiens, K562) | Structure (SMILES)
18 |  |  |  | 3.6 ± 3.2% | 15.7 ± 3% | 3.06 ± 1.1 µM | COc1cc2nc(C)nc(N[C@H](C)c3cc(N)cc(C(F)(F)F)c3)c2cc1OC1CCN(C(=O)CCCCCCCCCSc2cccc3c2CN(C2CCC(=O)NC2=O)C3=O)CC1 (stereo partly drawn) [SIAIS561137]
19 |  |  |  | -14.6 ± 1.1% | 11 ± 0.6% | 8.97 ± 0.146 µM | COc1cc2nc(C)nc(N[C@H](C)c3cc(N)cc(C(F)(F)F)c3)c2cc1OC1CCN(C(=O)CCCCCCCCCCSc2cccc3c2CN(C2CCC(=O)NC2=O)C3=O)CC1 (stereo partly drawn) [SIAIS561138]
20 |  |  |  | -15.2 ± 2% | 7.7 ± 4.3% | 2.75 ± 0.36 µM | COc1cc2nc(C)nc(N[C@H](C)c3cc(N)cc(C(F)(F)F)c3)c2cc1OC1CCN(C(=O)CCCCCCCSc2cccc3c2CN(C2CCC(=O)NC2=O)C3=O)CC1 (stereo partly drawn) [SIAIS561139]
21 |  |  |  | 4.6 ± 1.8% | 38.7 ± 1.1% | 0.846 ± 0.157 µM | COc1cc2nc(C)nc(N[C@H](C)c3cc(N)cc(C(F)(F)F)c3)c2cc1O[C@H]1CCN(CCCCCCCCCCCSc2cccc3c2CN(C2CCC(=O)NC2=O)C3=O)C1 (stereo partly drawn) [SIAIS562019]
22 |  |  |  | 30.4 ± 0.3% | 86.4 ± 0.4% | 0.822 ± 0.083 µM | COc1cc2nc(C)nc(N[C@H](C)c3cc(N)cc(C(F)(F)F)c3)c2cc1O[C@H]1CCN(CCCCCCCCCCCCSc2cccc3c2CN(C2CCC(=O)NC2=O)C3=O)C1 (stereo partly drawn) [SIAIS562020]
23 |  |  |  | 44.4 ± 6.5% | 49.7 ± 14% | 7.08 ± 0.216 µM | COc1cc2nc(C)nc(N[C@H](C)c3cc(N)cc(C(F)(F)F)c3)c2cc1O[C@H]1CCN(C(=O)CCCCCCCCSc2cccc3c2CN(C2CCC(=O)NC2=O)C3=O)C1 (stereo partly drawn) [SIAIS562079]
24 |  |  |  | -46.9 ± 11% | 5.5 ± 3.2% | 4.95 ± 0.412 µM | COc1cc2nc(C)nc(N[C@H](C)c3cc(N)cc(C(F)(F)F)c3)c2cc1OC1CCN(C(=O)CCCCCCCCSc2cccc3c2CN(C2CCC(=O)NC2=O)C3=O)CC1 (stereo partly drawn) [SIAIS562080]
25 |  |  |  | 21.3 ± 0.5% | 71 ± 1.6% | 4.68 ± 1.21 µM | COc1cc2nc(C)nc(N[C@H](C)c3cc(N)cc(C(F)(F)F)c3)c2cc1O[C@H]1CCN(C(=O)CCCCCCCCCCCSc2cccc3c2CN(C2CCC(=O)NC2=O)C3=O)C1 (stereo partly drawn) [SIAIS562082]
26 |  |  |  | -5.4 ± 2.2% | 35.5 ± 1% | 4.13 ± 0.34 µM | COc1cc2nc(C)nc(N[C@H](C)c3cc(N)cc(C(F)(F)F)c3)c2cc1OC1CCN(C(=O)CCCCCCCCCCCSc2cccc3c2CN(C2CCC(=O)NC2=O)C3=O)CC1 (stereo partly drawn) [SIAIS562083]
